# Measurements: ChEMBL document CHEMBL4619816, “GSK973 Is an Inhibitor of the Second Bromodomains (BD2s) of the Bromodomain and Extra-Terminal (BET) Family” (ACS Med Chem Lett, 2020)
# The source made the active and inactive calls. No cut-off for these calls is given here.
# Legend:
# [1] = Volume of distribution at steady state in Wistar Han rat at 1 mg/kg administered as iv infusion for 1 hr and measured up to 24 hrs by LC-MS/MS analysis; assay type: ADME, organism-based; details: in vivo, read-out: Vdss
# [2] = Oral bioavailability in Wistar Han rat at 3 mg/kg measured up to 24 hrs by LC-MS/MS analysis; assay type: ADME, organism-based; details: in vivo
# [3] = Renal clearance in Beagle dog at 1 mg/kg, iv; assay type: ADME, organism-based, Canis lupus familiaris; details: in vivo
# [4] = Half life in Beagle dog at 1 mg/kg, iv; assay type: ADME, organism-based, Canis lupus familiaris; details: in vivo
# [5] = target: Bromodomain-containing protein 1 (Homo sapiens) (UniProt O95696); experiment: Inhibition of human partial length BRD1 (E556 to A688 residues) expressed in bacterial expression system by BROMOscan assay
# [6] = target: Bromodomain-containing protein 3 (Homo sapiens) (UniProt Q15059); experiment: Inhibition of human partial length BRD3 bromodomain 1 (P24 to E144 residues) expressed in bacterial expression system by BROMOscan assay
# [7] = target: Bromodomain-containing protein 3 (Homo sapiens) (UniProt Q15059); experiment: Inhibition of BRD3 bromodomain 1/2 (unknown origin) by BROMOscan assay
# [8] = target: Bromodomain-containing protein 3 (Homo sapiens) (UniProt Q15059); experiment: Inhibition of human partial length BRD3 bromodomain 2 (G306 to P416 residues) expressed in bacterial expression system by BROMOscan assay
# [9] = target: Bromodomain-containing protein 8 (Homo sapiens) (UniProt Q9H0E9); experiment: Inhibition of BRD8 bromodomain 1 (unknown origin) by BROMOscan assay
# [10] = target: Bromodomain-containing protein 9 (Homo sapiens) (UniProt Q9H8M2); experiment: Inhibition of human partial length BRD9 (R130 to V259 residues) expressed in bacterial expression system by BROMOscan assay
# [11] = target: Bromodomain testis-specific protein (Homo sapiens) (UniProt Q58F21); experiment: Inhibition of human partial length BRDT bromodomain 1 (N21 to E137 residues) expressed in bacterial expression system by BROMOscan assay
# [12] = target: Bromodomain testis-specific protein (Homo sapiens) (UniProt Q58F21); experiment: Inhibition of human partial length BRDT bromodomain 2 (K250 to E382 residues) expressed in bacterial expression system by BROMOscan assay
# [13] = target: Peregrin (Homo sapiens) (UniProt P55201); experiment: Inhibition of human partial length BRPF1 (E627 to G740 residues) expressed in bacterial expression system by BROMOscan assay
# [14] = target: Histone acetyltransferase KAT2A (Homo sapiens) (UniProt Q92830); experiment: Inhibition of human partial length GCN5L2 (E726 to K837 residues) expressed in bacterial expression system by BROMOscan assay
# [15] = target: Protein polybromo-1 (Homo sapiens) (UniProt Q86U86); experiment: Inhibition of human partial length PBRM1 bromodomain 5 (S645 to D766 residues) expressed in bacterial expression system by BROMOscan assay
# Protein polybromo-1 (Homo sapiens), sequence (Q86U86 whole entry, the tested form may be a part): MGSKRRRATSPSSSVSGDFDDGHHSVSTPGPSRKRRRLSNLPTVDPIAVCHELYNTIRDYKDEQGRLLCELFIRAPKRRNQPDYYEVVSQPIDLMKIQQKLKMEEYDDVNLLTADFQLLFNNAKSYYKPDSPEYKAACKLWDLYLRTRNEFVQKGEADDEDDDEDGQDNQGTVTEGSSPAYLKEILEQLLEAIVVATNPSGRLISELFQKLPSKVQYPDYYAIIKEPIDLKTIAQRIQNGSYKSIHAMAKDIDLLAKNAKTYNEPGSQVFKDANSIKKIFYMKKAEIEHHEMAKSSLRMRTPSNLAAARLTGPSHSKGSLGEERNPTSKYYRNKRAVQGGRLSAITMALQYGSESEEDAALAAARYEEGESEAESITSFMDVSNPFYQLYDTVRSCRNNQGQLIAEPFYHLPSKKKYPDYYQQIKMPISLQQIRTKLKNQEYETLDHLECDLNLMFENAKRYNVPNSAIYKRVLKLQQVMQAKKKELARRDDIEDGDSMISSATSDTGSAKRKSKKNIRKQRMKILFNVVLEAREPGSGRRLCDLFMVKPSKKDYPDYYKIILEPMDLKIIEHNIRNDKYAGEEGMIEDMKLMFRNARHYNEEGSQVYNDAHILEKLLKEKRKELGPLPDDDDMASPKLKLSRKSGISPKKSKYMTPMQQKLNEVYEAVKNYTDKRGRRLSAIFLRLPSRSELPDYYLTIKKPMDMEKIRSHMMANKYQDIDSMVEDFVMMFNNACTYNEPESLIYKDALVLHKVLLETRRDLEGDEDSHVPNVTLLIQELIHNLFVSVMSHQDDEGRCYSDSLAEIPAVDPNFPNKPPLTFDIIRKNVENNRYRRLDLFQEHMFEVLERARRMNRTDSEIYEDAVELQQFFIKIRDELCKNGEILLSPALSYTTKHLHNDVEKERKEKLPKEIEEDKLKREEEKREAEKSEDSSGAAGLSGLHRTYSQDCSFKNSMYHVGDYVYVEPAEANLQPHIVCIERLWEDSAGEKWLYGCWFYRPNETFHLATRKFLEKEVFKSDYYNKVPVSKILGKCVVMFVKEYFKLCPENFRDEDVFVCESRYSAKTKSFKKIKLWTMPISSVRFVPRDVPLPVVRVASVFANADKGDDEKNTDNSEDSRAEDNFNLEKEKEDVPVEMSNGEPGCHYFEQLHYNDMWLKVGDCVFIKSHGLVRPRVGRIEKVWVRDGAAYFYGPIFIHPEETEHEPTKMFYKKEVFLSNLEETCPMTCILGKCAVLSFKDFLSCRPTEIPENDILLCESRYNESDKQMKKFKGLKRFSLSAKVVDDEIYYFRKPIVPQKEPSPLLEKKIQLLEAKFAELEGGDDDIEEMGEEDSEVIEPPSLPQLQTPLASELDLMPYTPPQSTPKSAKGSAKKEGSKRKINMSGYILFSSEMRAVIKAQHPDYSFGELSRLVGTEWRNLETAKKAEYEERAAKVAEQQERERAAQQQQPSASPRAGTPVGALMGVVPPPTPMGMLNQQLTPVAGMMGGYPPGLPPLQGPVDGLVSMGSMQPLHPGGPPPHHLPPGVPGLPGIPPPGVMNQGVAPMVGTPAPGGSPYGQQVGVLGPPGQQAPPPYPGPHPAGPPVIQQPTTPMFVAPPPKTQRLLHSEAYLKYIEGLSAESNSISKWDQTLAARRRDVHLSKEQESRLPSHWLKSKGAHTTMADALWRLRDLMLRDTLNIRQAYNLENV
# Bromodomain-containing protein 3 (Homo sapiens), sequence (Q15059 2-726 limits assumed): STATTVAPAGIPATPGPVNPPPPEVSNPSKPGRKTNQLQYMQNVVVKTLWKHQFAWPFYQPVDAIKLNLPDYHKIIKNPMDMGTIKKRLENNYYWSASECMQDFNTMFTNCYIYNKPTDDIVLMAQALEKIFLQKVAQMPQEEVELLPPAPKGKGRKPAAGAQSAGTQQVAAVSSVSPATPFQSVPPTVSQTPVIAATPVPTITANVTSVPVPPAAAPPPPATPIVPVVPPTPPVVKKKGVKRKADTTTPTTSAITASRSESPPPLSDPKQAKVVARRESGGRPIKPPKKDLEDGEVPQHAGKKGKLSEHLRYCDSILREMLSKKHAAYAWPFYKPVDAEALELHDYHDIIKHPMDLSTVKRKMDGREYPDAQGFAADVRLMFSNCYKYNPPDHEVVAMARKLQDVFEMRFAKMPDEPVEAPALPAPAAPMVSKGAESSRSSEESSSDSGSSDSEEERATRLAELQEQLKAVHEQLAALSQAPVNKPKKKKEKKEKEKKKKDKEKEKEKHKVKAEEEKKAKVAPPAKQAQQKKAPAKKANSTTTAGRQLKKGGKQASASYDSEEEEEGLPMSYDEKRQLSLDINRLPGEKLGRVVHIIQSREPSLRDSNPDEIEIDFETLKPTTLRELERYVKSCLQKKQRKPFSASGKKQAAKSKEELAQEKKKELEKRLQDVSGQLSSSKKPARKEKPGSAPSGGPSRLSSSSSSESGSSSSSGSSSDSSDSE
# Bromodomain-containing protein 9 (Homo sapiens), sequence (Q9H8M2 whole entry, the tested form may be a part): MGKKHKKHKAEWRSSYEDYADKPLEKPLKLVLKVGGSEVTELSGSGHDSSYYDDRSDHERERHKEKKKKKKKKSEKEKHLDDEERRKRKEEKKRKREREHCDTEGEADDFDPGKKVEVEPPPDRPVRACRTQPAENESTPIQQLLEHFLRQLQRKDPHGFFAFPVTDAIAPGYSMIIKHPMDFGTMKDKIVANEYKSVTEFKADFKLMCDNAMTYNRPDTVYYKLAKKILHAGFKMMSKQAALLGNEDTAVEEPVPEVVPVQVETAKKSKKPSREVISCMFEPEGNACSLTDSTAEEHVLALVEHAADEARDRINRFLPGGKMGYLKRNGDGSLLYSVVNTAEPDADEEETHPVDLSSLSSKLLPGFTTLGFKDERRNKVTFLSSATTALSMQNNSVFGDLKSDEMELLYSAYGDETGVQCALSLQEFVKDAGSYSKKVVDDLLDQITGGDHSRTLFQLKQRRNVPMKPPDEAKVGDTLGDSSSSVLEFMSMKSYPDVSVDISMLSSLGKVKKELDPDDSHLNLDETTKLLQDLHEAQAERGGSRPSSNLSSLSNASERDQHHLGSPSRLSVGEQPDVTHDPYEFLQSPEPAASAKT
# Bromodomain-containing protein 8 (Homo sapiens), sequence (Q9H0E9 whole entry, the tested form may be a part): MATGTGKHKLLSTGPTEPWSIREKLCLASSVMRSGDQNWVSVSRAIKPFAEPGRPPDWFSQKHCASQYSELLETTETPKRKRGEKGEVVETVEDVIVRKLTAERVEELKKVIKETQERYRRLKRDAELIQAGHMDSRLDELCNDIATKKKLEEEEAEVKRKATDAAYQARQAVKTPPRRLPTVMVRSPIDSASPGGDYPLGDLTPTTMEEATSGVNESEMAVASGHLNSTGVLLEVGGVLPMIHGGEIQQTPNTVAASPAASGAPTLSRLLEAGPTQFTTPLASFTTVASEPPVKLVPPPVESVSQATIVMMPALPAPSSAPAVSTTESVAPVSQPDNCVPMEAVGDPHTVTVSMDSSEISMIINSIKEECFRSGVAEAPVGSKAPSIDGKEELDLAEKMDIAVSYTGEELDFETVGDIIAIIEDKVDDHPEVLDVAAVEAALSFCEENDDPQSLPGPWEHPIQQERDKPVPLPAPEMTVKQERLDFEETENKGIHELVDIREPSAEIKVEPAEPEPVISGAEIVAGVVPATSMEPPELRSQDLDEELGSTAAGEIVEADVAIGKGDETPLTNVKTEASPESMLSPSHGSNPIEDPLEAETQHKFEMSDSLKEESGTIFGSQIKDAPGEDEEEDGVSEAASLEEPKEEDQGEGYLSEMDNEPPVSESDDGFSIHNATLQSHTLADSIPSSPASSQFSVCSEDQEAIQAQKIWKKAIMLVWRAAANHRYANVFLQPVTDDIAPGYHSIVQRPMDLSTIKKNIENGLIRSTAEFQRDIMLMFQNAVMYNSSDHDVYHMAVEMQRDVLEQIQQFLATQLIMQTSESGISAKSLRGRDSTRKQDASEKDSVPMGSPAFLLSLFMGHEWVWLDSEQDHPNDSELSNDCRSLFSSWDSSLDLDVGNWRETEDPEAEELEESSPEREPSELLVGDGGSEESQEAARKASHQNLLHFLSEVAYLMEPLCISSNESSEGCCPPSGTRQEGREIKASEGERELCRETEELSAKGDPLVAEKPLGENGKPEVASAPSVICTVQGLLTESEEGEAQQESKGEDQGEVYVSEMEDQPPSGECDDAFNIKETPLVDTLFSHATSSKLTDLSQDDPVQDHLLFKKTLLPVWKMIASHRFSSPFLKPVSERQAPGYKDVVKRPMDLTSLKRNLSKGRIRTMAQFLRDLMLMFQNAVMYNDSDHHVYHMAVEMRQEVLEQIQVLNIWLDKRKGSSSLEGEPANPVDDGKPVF
# Histone acetyltransferase KAT2A (Homo sapiens), sequence (Q92830 2-837 limits assumed): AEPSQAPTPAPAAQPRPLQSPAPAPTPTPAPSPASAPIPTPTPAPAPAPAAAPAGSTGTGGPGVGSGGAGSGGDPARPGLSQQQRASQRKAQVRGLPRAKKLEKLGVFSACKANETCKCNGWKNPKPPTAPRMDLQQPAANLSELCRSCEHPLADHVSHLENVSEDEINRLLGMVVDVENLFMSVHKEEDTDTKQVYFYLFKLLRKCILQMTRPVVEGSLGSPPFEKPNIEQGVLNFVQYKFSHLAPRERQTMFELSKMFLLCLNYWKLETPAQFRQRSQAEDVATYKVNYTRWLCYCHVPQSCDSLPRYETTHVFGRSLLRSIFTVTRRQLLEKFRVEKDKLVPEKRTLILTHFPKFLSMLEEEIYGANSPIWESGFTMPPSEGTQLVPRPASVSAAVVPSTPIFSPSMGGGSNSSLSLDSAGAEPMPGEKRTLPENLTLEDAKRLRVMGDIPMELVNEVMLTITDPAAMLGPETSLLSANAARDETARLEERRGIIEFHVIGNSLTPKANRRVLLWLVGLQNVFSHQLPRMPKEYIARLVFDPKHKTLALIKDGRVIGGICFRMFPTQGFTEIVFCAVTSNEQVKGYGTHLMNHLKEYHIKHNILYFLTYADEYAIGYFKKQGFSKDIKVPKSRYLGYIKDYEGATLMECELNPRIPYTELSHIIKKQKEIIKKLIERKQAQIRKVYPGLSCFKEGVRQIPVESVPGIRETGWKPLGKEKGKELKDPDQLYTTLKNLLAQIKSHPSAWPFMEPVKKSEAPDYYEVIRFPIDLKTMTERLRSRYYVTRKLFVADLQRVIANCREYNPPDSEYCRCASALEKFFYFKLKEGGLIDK
structure (smiles),measurement,setting,value
CNC(=O)c1cc(C(=O)N[C@@H]2[C@@H]3COC[C@@H]32)cc2c1O[C@H](CF)[C@H]2c1ccccc1,Vd,[1],2.1 L/kg
same,bioavailability,[2],48%
same,CL renal,[3],0.3 mL/min/kg
same,half-life,[4],4.8 h
same,inhibition,[5],inactive
same,inhibition,[6],inactive
same,inhibition,[7],inactive
same,inhibition,[8],inactive
same,inhibition,[9],inactive
same,inhibition,[10],inactive
same,inhibition,[11],inactive
same,inhibition,[12],inactive
same,inhibition,[13],inactive
same,inhibition,[14],inactive
same,inhibition,[15],inactive
